According to patent US20180170903A1, “PYRIDIN-3-YL ACETIC ACID DERIVATIVES AS INHIBITORS OF HUMAN IMMUNODEFICIENCY VIRUS REPLICATION” (ViiV HEALTHCARE UK (NO.5) LIMITED, priority 2015, published 2018):
pEC50: −log10 of the molar value.

Test system: NL-RLuc virus (recombinant HIV NL4-3 proviral clone with Renilla Luciferase) in MT-2 cells
Experiment: Inhibition of HIV Replication (NL-RLuc luciferase reporter virus, MT-2 cells)
Format: cell-based
Settings: MT2, 120 h, read-out: Activity
Text: Inhibition of HIV Replication:
A recombinant NL-RLuc proviral clone was constructed in which a section of the nef gene from NL4-3 was replaced with the Renilla Luciferase gene. This virus is fully infectious and can undergo multiple cycles of replication in cell culture. In addition, the luciferous reporter provides a simple and easy method for quantitating the extent of virus growth and consequently, the antiviral activity of test compounds. The plasmid pNLRLuc contains the proviral NL-Rluc DNA cloned into pUC 18 at the PvuII site. The NL-RLuc virus was prepared by transfection of 293T cells with the plasmid pNLRLuc. Transfections were performed using the LipofectAMINE PLUS kit from Invitrogen (Carlsbad, Calif.) according to the manufacturer and the virus generated was titered in MT-2 cells. For susceptibility analyses, the titrated virus was used to infect MT-2 cells in the presence of compound, and after 5 days of incubation, cells were processed and quantitated for virus growth by the amount of expressed luciferase. Assay media was RPMI 1640 supplemented with 10% heat inactivated fetal bovine serum (FBS), 100 units/ml penicillin G/100 units/ml streptomycin, 10 mM HEPES buffer pH 7.55 and 2 mM L-glutamine. The results from at least 2 experiments were used to calculate the EC50 values. Luciferase was quantitated using the Dual Luciferase kit from Promega (Madison, Wis.). Susceptibility of viruses to compounds was determined by incubation in the presence of serial dilutions of the compound. The 50% effective concentration (EC50) was calculated by using the exponential form of the median effect equation where (Fa)=1/[1+(ED50/drug conc.)^m](Johnson V A, Byington R T. Infectivity Assay. In Techniques in HIV Research. ed. Aldovini A, Walker B D. 71-76. New York: Stockton Press. 1990). Activity equal to A refers to a compound having an EC50≤100 nM, while B and C denote compounds having an EC50 between 100 nM and 1 uM (B) or >1 uM (C).

**Q.** `CC(=O)N(Cc1ccc(F)cc1)Cc1ccc(-c2c(C)nc(C)c([C@H](OC(C)(C)C)C(=O)O)c2N2CCC(C)(C)CC2)cc1` [Example 24, (S)-2-(tert-butoxy)-2-(4-(4,4-dimethylpiperidin-1-yl)-5-(4-((N-(4-fluorobenzyl)acetamido)methyl)phenyl)-2,6-dimethylpyridin-3-yl)acetic acid] was tested. Which pEC50 did it give?
**A.** > 7.00

**Q.** `Cc1nc(C)c([C@H](OC(C)(C)C)C(=O)O)c(N2CCC(C)(C)CC2)c1-c1ccc(CN(Cc2ccc(F)cc2)C(=O)C(C)(C)C)cc1` [Example 25, (S)-2-(tert-butoxy)-2-(4-(4,4-dimethylpiperidin-1-yl)-5-(4-((N-(4-fluorobenzyl)pivalamido)methyl)phenyl)-2,6-dimethylpyridin-3-yl)acetic acid] was tested. Which pEC50 did it give?
**A.** > 7.00

**Q.** How did the pEC50 turn out when `COc1ccccc1C(=O)N(Cc1ccc(F)cc1)Cc1ccc(-c2c(C)nc(C)c([C@H](OC(C)(C)C)C(=O)O)c2N2CCC(C)(C)CC2)cc1` [Example 26, (S)-2-(tert-butoxy)-2-(4-(4,4-dimethylpiperidin-1-yl)-5-(4-((N-(4-fluorobenzyl)-2-methoxybenzamido)methyl)phenyl)-2,6-dimethylpyridin-3-yl)acetic acid] was run?
**A.** > 7.00

**Q.** How did the pEC50 turn out when `Cc1nc(C)c([C@H](OC(C)(C)C)C(=O)O)c(N2CCC(C)(C)CC2)c1-c1ccc(CN(Cc2ccc(F)cc2)C(=O)c2ccccc2F)cc1` [Example 27, (S)-2-(tert-butoxy)-2-(4-(4,4-dimethylpiperidin-1-yl)-5-(4-((2-fluoro-N-(4-fluorobenzyl)benzamido)methyl)phenyl)-2,6-dimethylpyridin-3-yl)acetic acid] was run?
**A.** > 7.00

**Q.** With `Cc1nc(C)c([C@H](OC(C)(C)C)C(=O)O)c(N2CCC(C)(C)CC2)c1-c1ccc(CN(Cc2ccc(F)cc2)C(=O)c2ccc(F)cc2)cc1` [Example 28, (S)-2-(tert-butoxy)-2-(4-(4,4-dimethylpiperidin-1-yl)-5-(4-((4-fluoro-N-(4-fluorobenzyl)benzamido)methyl)phenyl)-2,6-dimethylpyridin-3-yl)acetic acid] as the compound, how does the pEC50 read?
**A.** > 7.00

**Q.** How did the pEC50 turn out when `Cc1cc(C(=O)N(Cc2ccc(F)cc2)Cc2ccc(-c3c(C)nc(C)c([C@H](OC(C)(C)C)C(=O)O)c3N3CCC(C)(C)CC3)cc2)c(C)o1` [Example 29, (S)-2-(terr-butoxy)-2-(4-(4,4-dimethylpiperidin-1-yl)-5-(4-((N-(4-fluorobenzyl)-2,5-dimethylfuran-3-carboxamido)methyl)phenyl)-2,6-dimethylpyridin-3-yl)acetic acid] was run?
**A.** > 7.00

**Q.** With `Cc1nc(C)c([C@H](OC(C)(C)C)C(=O)O)c(N2CCC(C)(C)CC2)c1-c1ccc(CN(Cc2ccc(F)cc2)C(=O)COc2ccccc2)cc1` [Example 30, (S)-2-(tert-butoxy)-2-(4-(4,4-dimethylpiperidin-1-yl)-5-(4-((N-(4-fluorobenzyl)-2-phenoxyacetamido)methyl)phenyl)-2,6-dimethylpyridin-3-yl)acetic acid] as the compound, how does the pEC50 read?
**A.** 6.00 to 7.00

**Q.** How did the pEC50 turn out when `Cc1nc(C)c([C@H](OC(C)(C)C)C(=O)O)c(N2CCC(C)(C)CC2)c1-c1ccc(CN(Cc2ccc(F)cc2)C(=O)OCc2ccccc2)cc1` [Example 31, (S)-2-(5-(4-((((benzyloxy)carbonyl)(4-fluorobenzyl)amino)methyl)phenyl)-4-(4,4-dimethylpiperidin-1-yl)-2,6-dimethylpyridin-3-yl)-2-(tert-butoxy)acetic acid] was run?
**A.** > 7.00

**Q.** `COC(=O)N(Cc1ccc(F)cc1)Cc1ccc(-c2c(C)nc(C)c([C@H](OC(C)(C)C)C(=O)O)c2N2CCC(C)(C)CC2)cc1` [Example 32, (S)-2-(tert-butoxy)-2-(4-(4,4-dimethylpiperidin-1-yl)-5-(4-(((4-fluorobenzyl)(methoxycarbonyl)amino)methyl)phenyl)-2,6-dimethylpyridin-3-yl)acetic acid] was tested. Which pEC50 did it give?
**A.** > 7.00

**Q.** With `CCOC(=O)N(Cc1ccc(F)cc1)Cc1ccc(-c2c(C)nc(C)c([C@H](OC(C)(C)C)C(=O)O)c2N2CCC(C)(C)CC2)cc1` [Example 33, (S)-2-(tert-butoxy)-2-(4-(4,4-dimethylpiperidin-1-yl)-5-(4-(((ethoxycarbonyl)(4 fluorobenzyl)amino)methyl)phenyl)-2,6-dimethylpyridin-3-yl)acetic acid] as the compound, how does the pEC50 read?
**A.** > 7.00

**Q.** How did the pEC50 turn out when `Cc1nc(C)c([C@H](OC(C)(C)C)C(=O)O)c(N2CCC(C)(C)CC2)c1-c1ccc(CN(Cc2ccc(F)cc2)S(C)(=O)=O)cc1` [Example 34, (S)-2-(tert-butoxy)-2-(4-(4,4-dimethylpiperidin-1-yl)-5-(4-((N-(4-fluorobenzyl)methylsulfonamido)methyl)phenyl)-2,6-dimethylpyridin-3-yl)acetic acid] was run?
**A.** > 7.00

**Q.** `Cc1nc(C)c([C@H](OC(C)(C)C)C(=O)O)c(N2CCC(C)(C)CC2)c1-c1ccc(CN(Cc2ccc(F)cc2)C(=O)N2CCCC2)cc1` [Example 35, (S)-2-(tert-butoxy)-2-(4-(4,4-dimethylpiperidin-1-yl)-5-(4-((N-(4-fluorobenzyl)pyrrolidine-1-carboxamido)methyl)phenyl)-2,6-dimethylpyridin-3-yl)acetic acid] was tested. Which pEC50 did it give?
**A.** > 7.00

**Q.** With `Cc1nc(C)c([C@H](OC(C)(C)C)C(=O)O)c(N2CCC(C)(C)CC2)c1-c1ccc(CN(Cc2ccc(F)cc2)S(=O)(=O)c2ccccc2)cc1` [Example 36, (S)-2-(tert-butoxy)-2-(4-(4,4-dimethylpiperidin-1-yl)-5-(4-((N-(4-fluorobenzyl)phenylsulfonamido)methyl)phenyl)-2,6-dimethylpyridin-3-yl)acetic acid] as the compound, how does the pEC50 read?
**A.** > 7.00

**Q.** `COc1cccc(C(=O)N(Cc2ccc(F)cc2)Cc2ccc(-c3c(C)nc(C)c([C@H](OC(C)(C)C)C(=O)O)c3N3CCC(C)(C)CC3)cc2)c1` [Example 37, (S)-2-(tert-butoxy)-2-(4-(4,4-dimethylpiperidin-1-yl)-5-(4-((N-(4-fluorobenzyl)-3-methoxybenzamido)methyl)phenyl)-2,6-dimethylpyridin-3-yl)acetic acid] was tested. Which pEC50 did it give?
**A.** > 7.00

**Q.** `Cc1nc(C)c([C@H](OC(C)(C)C)C(=O)O)c(N2CCC(C)(C)CC2)c1-c1ccc(CN(Cc2ccc(F)cc2)C(=O)c2cccc(C(F)(F)F)c2)cc1` [Example 38, (S)-2-(tert-butoxy)-2-(4-(4,4-dimethylpiperidin-1-yl)-5-(4-((N-(4-fluorobenzyl)-3-(trifluoromethyl)benzamio)methyl)phenyl)-2,6-dimethylpyridin-3-yl)acetic acid] was tested. Which pEC50 did it give?
**A.** > 7.00

**Q.** `Cc1nc(C)c([C@H](OC(C)(C)C)C(=O)O)c(N2CCC(C)(C)CC2)c1-c1ccc(CN(Cc2ccc(F)cc2)C(=O)c2ccccc2C(F)(F)F)cc1` [Example 39, (S)-2-(tert-butoxy)-2-(4-(4,4-dimethylpiperidin-1-yl)-5-(4-((N-(4-fluorobenzyl)-2-(trifluoromethyl)benzamido)methyl)phenyl)-2,6-dimethylpyridin-3-yl)acetic acid] was tested. Which pEC50 did it give?
**A.** > 7.00

**Q.** How did the pEC50 turn out when `Cc1nc(C)c([C@H](OC(C)(C)C)C(=O)O)c(N2CCC(C)(C)CC2)c1-c1ccc(CN(Cc2ccc(F)cc2)C(=O)C2CC2)cc1` [Example 40, (S)-2-(tert-butoxy)-2-(4-(4,4-dimethylpiperidin-1-yl)-5-(4-((N-(4-fluorobenzyl)cyclopropanecarboxamido)methyl)phenyl)-2,6-dimethylpyridin-3-yl)acetic acid] was run?
**A.** > 7.00

Same assay, conditions: MT2, 120 h, read-out: EC50 μM

**Q.** For `Cc1nc(C)c([C@H](OC(C)(C)C)C(=O)O)c(N2CCC(C)(C)CC2)c1-c1ccc(CN(Cc2ccc(F)cc2)C(=O)c2ccccc2F)cc1` [Example 27, (S)-2-(tert-butoxy)-2-(4-(4,4-dimethylpiperidin-1-yl)-5-(4-((2-fluoro-N-(4-fluorobenzyl)benzamido)methyl)phenyl)-2,6-dimethylpyridin-3-yl)acetic acid], which EC50 is on record?
**A.** 0.008 µM

**Q.** Which EC50 does the source give for `Cc1nc(C)c([C@H](OC(C)(C)C)C(=O)O)c(N2CCC(C)(C)CC2)c1-c1ccc(CN(Cc2ccc(F)cc2)C(=O)COc2ccccc2)cc1` [Example 30, (S)-2-(tert-butoxy)-2-(4-(4,4-dimethylpiperidin-1-yl)-5-(4-((N-(4-fluorobenzyl)-2-phenoxyacetamido)methyl)phenyl)-2,6-dimethylpyridin-3-yl)acetic acid] here?
**A.** 0.118 µM
